{"source": "patent USRE32311E", "key": {"[1]": {"tested_on": "Staphylococcus epidermidis EP11", "assay": "agar-dilution MIC", "format": "cell-based", "procedure": "(§1) In Table VII activity is measured by the minimal inhibitory concentration (MIC), i.e. the lowest concentration of compound at which growth of the microorganism is inhibited by the test compound."}, "[2]": {"tested_on": "Streptococcus pyogenes C203", "assay": "agar-dilution MIC", "format": "cell-based", "procedure": "as §1"}, "[3]": {"tested_on": "Streptococcus pneumoniae Park I", "format": "cell-based", "details": "agar dilution", "procedure": "as §1"}, "Staphylococcus aureus": {"tested_on": "Staphylococcus aureus", "assay": "experimental bacterial infection in mice, ED50", "format": "in vivo", "details": "two doses"}, "[4]": {"tested_on": "Staphylococcus aureus X400", "assay": "agar-dilution MIC", "format": "cell-based", "details": "Staphylococcus aureus X400, methicillin-resistant strain", "procedure": "as §1"}, "[5]": {"tested_on": "Streptococcus Group D X66", "assay": "agar-dilution MIC", "format": "cell-based", "procedure": "as §1"}, "[6]": {"tested_on": "Staphylococcus epidermidis EP12", "assay": "agar-dilution MIC", "format": "cell-based", "procedure": "as §1"}, "toxicity, LD50 in mice": {"assay": "toxicity, LD50 in mice", "format": "in vivo", "details": "administered intravenously"}, "[7]": {"tested_on": "Streptococcus Group D 9960", "assay": "agar-dilution MIC", "format": "cell-based"}, "[8]": {"tested_on": "Staphylococcus aureus X1.1", "assay": "agar-dilution MIC", "format": "cell-based"}, "[9]": {"tested_on": "Staphylococcus aureus V41", "assay": "agar-dilution MIC", "format": "cell-based", "details": "Staphylococcus aureus V41, penicillin-resistant strain", "procedure": "as §1"}, "Streptococcus pyogenes": {"tested_on": "Streptococcus pyogenes", "assay": "experimental bacterial infection in mice, ED50", "format": "in vivo", "details": "two doses"}}, "data": [{"compound": "CCCCCCCCCCCC(=O)Nc1cccc(C(=O)N[C@@H](Cc2c[nH]c3ccccc23)C(=O)N[C@H](CC(N)=O)C(=O)N[C@@H](CC(=O)O)C(=O)N[C@@H]2C(=O)NCC(=O)N[C@@H](CCCN)C(=O)N[C@@H](CC(=O)O)C(=O)N[C@H](C)C(=O)N[C@@H](CC(=O)O)C(=O)NCC(=O)N[C@H](CO)C(=O)N[C@@H]([C@H](C)CC(=O)O)C(=O)N[C@@H](CC(=O)c3ccccc3N)C(=O)O[C@@H]2C)c1", "note": "[Compound 5]", "values": [{"measurement": "MIC", "setting": "[1]", "result": 2, "unit": "µg/mL"}, {"measurement": "MIC", "setting": "[2]", "result": 0.25, "unit": "µg/mL"}, {"measurement": "MIC", "setting": "[3]", "result": 0.25, "unit": "µg/mL"}, {"measurement": "ED50 Staphylococcus aureus Subcutaneous", "setting": "Staphylococcus aureus", "result": 1.67, "unit": "mg/kg × 2"}, {"measurement": "MIC", "setting": "[4]", "result": 1, "unit": "µg/mL"}, {"measurement": "MIC", "setting": "[5]", "result": 4, "unit": "µg/mL"}, {"measurement": "MIC", "setting": "[6]", "result": 1, "unit": "µg/mL"}, {"measurement": "LD50 in Mice", "setting": "toxicity, LD50 in mice", "result": 277, "unit": "mg/kg"}, {"measurement": "MIC", "setting": "[7]", "result": 1, "unit": "µg/mL"}, {"measurement": "MIC", "setting": "[8]", "result": 0.5, "unit": "µg/mL"}, {"measurement": "MIC", "setting": "[9]", "result": 0.5, "unit": "µg/mL"}, {"measurement": "ED50 Streptococcus pyogenes Oral", "setting": "Streptococcus pyogenes", "result": "> 200", "unit": "mg/kg × 2"}]}, {"compound": "CCC(C)CCCCCCC(=O)N[C@@H](Cc1c[nH]c2ccccc12)C(=O)N[C@@H](CC(N)=O)C(=O)N[C@@H](CC(=O)O)C(=O)N[C@@H]1C(=O)NCC(=O)N[C@@H](CCCNC(=O)CCC(=O)O)C(=O)N[C@@H](CC(=O)O)C(=O)N[C@H](C)C(=O)N[C@@H](CC(=O)O)C(=O)NCC(=O)N[C@H](CO)C(=O)N[C@@H]([C@H](C)CC(=O)O)C(=O)N[C@@H](CC(=O)c2ccccc2N)C(=O)O[C@@H]1C", "note": "(stereo partly drawn) [Compound 15]", "values": [{"measurement": "MIC", "setting": "[1]", "result": 4, "unit": "µg/mL"}, {"measurement": "MIC", "setting": "[2]", "result": 1, "unit": "µg/mL"}, {"measurement": "MIC", "setting": "[3]", "result": 0.25, "unit": "µg/mL"}, {"measurement": "ED50 Staphylococcus aureus Subcutaneous", "setting": "Staphylococcus aureus", "result": "> 18", "unit": "mg/kg × 2"}, {"measurement": "MIC", "setting": "[4]", "result": 8, "unit": "µg/mL"}, {"measurement": "MIC", "setting": "[5]", "result": 4, "unit": "µg/mL"}, {"measurement": "MIC", "setting": "[6]", "result": 4, "unit": "µg/mL"}, {"measurement": "LD50 in Mice", "setting": "toxicity, LD50 in mice", "result": 250, "unit": "mg/kg"}, {"measurement": "MIC", "setting": "[7]", "result": 4, "unit": "µg/mL"}, {"measurement": "MIC", "setting": "[8]", "result": 1, "unit": "µg/mL"}, {"measurement": "MIC", "setting": "[9]", "result": 2, "unit": "µg/mL"}, {"measurement": "ED50 Streptococcus pyogenes Subcutaneous", "setting": "Streptococcus pyogenes; subcutaneous", "result": 1.02, "unit": "mg/kg × 2"}]}, {"compound": "CCCCCCCCCCCC(=O)N[C@@H](Cc1c[nH]c2ccccc12)C(=O)N[C@@H](Cc1c[nH]c2ccccc12)C(=O)N[C@H](CC(N)=O)C(=O)N[C@@H](CC(=O)O)C(=O)N[C@@H]1C(=O)NCC(=O)N[C@@H](CCCN)C(=O)N[C@@H](CC(=O)O)C(=O)N[C@H](C)C(=O)N[C@@H](CC(=O)O)C(=O)NCC(=O)N[C@H](CO)C(=O)N[C@@H]([C@H](C)CC(=O)O)C(=O)N[C@@H](CC(=O)c2ccccc2N)C(=O)O[C@@H]1C", "note": "[Compound 24]", "values": [{"measurement": "MIC", "setting": "[1]", "result": 4, "unit": "µg/mL"}, {"measurement": "MIC", "setting": "[2]", "result": 2, "unit": "µg/mL"}, {"measurement": "MIC", "setting": "[3]", "result": 1, "unit": "µg/mL"}, {"measurement": "ED50 Staphylococcus aureus Subcutaneous", "setting": "Staphylococcus aureus", "result": 2.3, "unit": "mg/kg × 2"}, {"measurement": "MIC", "setting": "[4]", "result": 4, "unit": "µg/mL"}, {"measurement": "MIC", "setting": "[5]", "result": 16, "unit": "µg/mL"}, {"measurement": "MIC", "setting": "[6]", "result": 4, "unit": "µg/mL"}, {"measurement": "LD50 in Mice", "setting": "toxicity, LD50 in mice", "result": 450, "unit": "mg/kg"}, {"measurement": "MIC", "setting": "[7]", "result": 4, "unit": "µg/mL"}, {"measurement": "MIC", "setting": "[8]", "result": 1, "unit": "µg/mL"}, {"measurement": "MIC", "setting": "[9]", "result": 2, "unit": "µg/mL"}, {"measurement": "ED50 Streptococcus pyogenes Oral", "setting": "Streptococcus pyogenes", "result": "> 200", "unit": "mg/kg × 2"}]}]}
